Measurements published in PubChem BioAssay AID1259407 (Chemical Carcinogenesis Research Information System (CCRIS), 2018).
Calls of active or inactive are those of the source. The rule behind the calls is not given here.

System: CCRIS mutagenicity, Ames/micronucleus/aberration tests
Experiment: CCRIS mutagenicity studies
[1] = Test System: AMES SALMONELLA TYPHIMURIUM, Strain/Indicator: TA100, Metabolic Activation: NONE, Method: STANDARD PLATE
[2] = Test System: AMES SALMONELLA TYPHIMURIUM, Strain/Indicator: TA98, Metabolic Activation: NONE, Method: STANDARD PLATE
[3] = Test System: AMES SALMONELLA TYPHIMURIUM, Strain/Indicator: TA98, Metabolic Activation: RAT, LIVER, S-9, AROCLOR 1254, Method: STANDARD PLATE
[4] = Test System: AMES SALMONELLA TYPHIMURIUM, Strain/Indicator: TA100, Metabolic Activation: RAT, LIVER, S-9, AROCLOR 1254, Method: STANDARD PLATE
[5] = Test System: AMES SALMONELLA TYPHIMURIUM, Strain/Indicator: TA1535, Metabolic Activation: RAT, LIVER, S-9, AROCLOR 1254, Method: STANDARD PLATE

Structure (SMILES): [N-]=[N+]=CC(=O)OC[C@H](N)C(=O)O
- mutagenic call [1]: active; positive
- mutagenic call (Test System: E. COLI WP2, Strain/Indicator: WP2, Metabolic Activation: NONE, Method: STANDARD PLATE): active; positive
- mutagenic call (Test System: UDS RAT HEPATOCYTES, Strain/Indicator: BROMODEOXYURIDINE INCORP, Metabolic Activation: NONE, Method: FLOW CYTOMETRIC ANALYSIS): active; positive
- mutagenic call (Test System: UDS RAT HEPATOCYTES, Strain/Indicator: THY INCORP, Metabolic Activation: NONE, Method: AUTORADIOGRAPHY): active; positive

Structure (SMILES): CC1C(C)(C)C2=C(C(=O)CCC2)C1(C)C (stereo not given)
- mutagenic call (Test System: AMES SALMONELLA TYPHIMURIUM, Strain/Indicator: TA97, Metabolic Activation: NONE, Method: STANDARD PLATE): inactive; negative
- mutagenic call (Test System: AMES SALMONELLA TYPHIMURIUM, Strain/Indicator: TA97, Metabolic Activation: RAT LIVER S-9, AROCLOR 1254, Method: STANDARD PLATE): inactive; negative
- mutagenic call [2]: inactive; negative
- mutagenic call (Test System: AMES SALMONELLA TYPHIMURIUM, Strain/Indicator: TA98, Metabolic Activation: RAT LIVER S-9, AROCLOR 1254, Method: STANDARD PLATE): inactive; negative
- mutagenic call [1]: inactive; negative
- mutagenic call (Test System: AMES SALMONELLA TYPHIMURIUM, Strain/Indicator: TA100, Metabolic Activation: RAT LIVER S-9, AROCLOR 1254, Method: STANDARD PLATE): inactive; negative
- mutagenic call (Test System: AMES SALMONELLA TYPHIMURIUM, Strain/Indicator: TA102, Metabolic Activation: NONE, Method: STANDARD PLATE): inactive; negative
- mutagenic call (Test System: AMES SALMONELLA TYPHIMURIUM, Strain/Indicator: TA102, Metabolic Activation: RAT LIVER S-9, AROCLOR 1254, Method: STANDARD PLATE): inactive; negative

Structure (SMILES): CC(NC(=O)COc1ccc(Cl)cc1Cl)C(=O)O (stereo not given)
- mutagenic call (Test System: AMES SALMONELLA TYPHIMURIUM, Strain/Indicator: TA97, Metabolic Activation: RAT, LIVER, S-9, AROCLOR 1254, Method: STANDARD PLATE): inactive; negative
- mutagenic call (Test System: AMES SALMONELLA TYPHIMURIUM, Strain/Indicator: TA97, Metabolic Activation: WOODCHUCK, LIVER, S-9, 3-METHYLCHOLANTHRENE, Method: STANDARD PLATE): inactive; negative
- mutagenic call [3]: inactive; negative
- mutagenic call (Test System: AMES SALMONELLA TYPHIMURIUM, Strain/Indicator: TA98, Metabolic Activation: WOODCHUCK, LIVER, S-9, 3-METHYLCHOLANTHRENE, Method: STANDARD PLATE): inactive; negative
- mutagenic call [4]: inactive; negative
- mutagenic call (Test System: AMES SALMONELLA TYPHIMURIUM, Strain/Indicator: TA100, Metabolic Activation: WOODCHUCK, LIVER, S-9, 3-METHYLCHOLANTHRENE, Method: STANDARD PLATE): inactive; negative
- mutagenic call [5]: inactive; negative
- mutagenic call (Test System: AMES SALMONELLA TYPHIMURIUM, Strain/Indicator: TA1535, Metabolic Activation: WOODCHUCK, LIVER, S-9, 3-METHYLCHOLANTHRENE, Method: STANDARD PLATE): inactive; negative
- mutagenic call (Test System: AMES SALMONELLA TYPHIMURIUM, Strain/Indicator: TA1538, Metabolic Activation: RAT, LIVER, S-9, AROCLOR 1254, Method: STANDARD PLATE): inactive; negative
- mutagenic call (Test System: AMES SALMONELLA TYPHIMURIUM, Strain/Indicator: TA1538, Metabolic Activation: WOODCHUCK, LIVER, S-9, 3-METHYLCHOLANTHRENE, Method: STANDARD PLATE): inactive; negative

Structure (SMILES): Cc1ccc(C(=O)n2ncc(Cl)c(Cl)c2=O)cc1
- mutagenic call [2]: inactive; negative
- mutagenic call [3]: inactive; negative
- mutagenic call [1]: inactive; negative
- mutagenic call [4]: inactive; negative
- mutagenic call (Test System: AMES SALMONELLA TYPHIMURIUM, Strain/Indicator: TA1535, Metabolic Activation: NONE, Method: STANDARD PLATE): inactive; negative
- mutagenic call [5]: inactive; negative
- mutagenic call (Test System: AMES SALMONELLA TYPHIMURIUM, Strain/Indicator: TA1537, Metabolic Activation: NONE, Method: STANDARD PLATE): inactive; negative
- mutagenic call (Test System: AMES SALMONELLA TYPHIMURIUM, Strain/Indicator: TA1537, Metabolic Activation: RAT, LIVER, S-9, AROCLOR 1254, Method: STANDARD PLATE): inactive; negative
